The text below walks through data of ChEMBL document CHEMBL5291721, “A preclinical secondary pharmacology resource illuminates target-adverse drug reaction associations of marketed drugs” (Nat Commun, 2023).

In experiment [1] the target is T1, Alpha-2A adrenergic receptor (Homo sapiens, UniProt P08913).
T1 sequence (P08913 whole entry): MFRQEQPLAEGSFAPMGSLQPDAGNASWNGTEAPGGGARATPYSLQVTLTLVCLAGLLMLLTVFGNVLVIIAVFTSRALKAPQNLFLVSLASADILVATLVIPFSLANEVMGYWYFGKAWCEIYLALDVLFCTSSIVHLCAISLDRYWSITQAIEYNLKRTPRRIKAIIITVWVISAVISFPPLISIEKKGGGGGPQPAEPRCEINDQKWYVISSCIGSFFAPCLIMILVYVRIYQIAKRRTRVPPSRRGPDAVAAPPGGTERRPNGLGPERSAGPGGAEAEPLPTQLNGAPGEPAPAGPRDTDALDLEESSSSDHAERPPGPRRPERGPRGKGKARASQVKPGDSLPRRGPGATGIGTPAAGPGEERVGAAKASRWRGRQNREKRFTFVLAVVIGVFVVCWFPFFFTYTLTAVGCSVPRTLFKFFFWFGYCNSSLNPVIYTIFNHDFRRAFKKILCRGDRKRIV
The class given is functional, cell-based.

Experiment [2] has as its target Gamma-aminobutyric acid receptor subunit alpha-1/alpha-2/beta-2/gamma-2 (Homo sapiens, UniProt P14867+P18507+P47869+P47870). The class given is functional, cell-based.
Another experiment concerns the target T2, Adenosine receptor A1 (Homo sapiens, UniProt P30542).
T2 sequence (P30542 whole entry): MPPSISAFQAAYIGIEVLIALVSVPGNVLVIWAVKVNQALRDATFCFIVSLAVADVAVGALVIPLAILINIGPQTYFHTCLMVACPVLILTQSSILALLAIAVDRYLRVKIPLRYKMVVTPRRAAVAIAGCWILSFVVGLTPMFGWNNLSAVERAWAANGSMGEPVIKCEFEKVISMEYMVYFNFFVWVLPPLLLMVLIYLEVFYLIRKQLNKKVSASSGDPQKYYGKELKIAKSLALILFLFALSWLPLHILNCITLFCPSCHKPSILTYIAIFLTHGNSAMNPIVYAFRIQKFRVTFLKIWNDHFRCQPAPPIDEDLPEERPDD

The target in experiment [3] is Gamma-aminobutyric acid receptor subunit alpha-1 (Rattus norvegicus, UniProt P62813).
In experiment [4] the target is T3, Muscarinic acetylcholine receptor M2 (Homo sapiens, UniProt P08172).
T3 sequence (P08172 whole entry): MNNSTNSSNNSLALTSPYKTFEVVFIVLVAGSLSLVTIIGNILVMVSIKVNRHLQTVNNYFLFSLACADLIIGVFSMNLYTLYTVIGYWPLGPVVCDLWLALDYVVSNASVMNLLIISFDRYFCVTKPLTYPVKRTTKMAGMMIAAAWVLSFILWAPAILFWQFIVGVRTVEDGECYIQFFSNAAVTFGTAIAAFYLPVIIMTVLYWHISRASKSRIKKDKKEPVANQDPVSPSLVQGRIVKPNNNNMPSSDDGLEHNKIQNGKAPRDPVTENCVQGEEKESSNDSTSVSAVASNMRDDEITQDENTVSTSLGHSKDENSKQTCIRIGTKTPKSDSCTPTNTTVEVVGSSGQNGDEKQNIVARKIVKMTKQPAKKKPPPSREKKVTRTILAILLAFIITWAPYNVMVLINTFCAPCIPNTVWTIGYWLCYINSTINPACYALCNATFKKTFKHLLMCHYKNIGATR
It is filed as functional, cell-based.

In a further experiment the target is D(3) dopamine receptor (Homo sapiens, UniProt P35462).
The next experiment deals with Cannabinoid receptor 1 (Homo sapiens, UniProt P21554). The class given is functional, cell-based.
The next experiment concerns the target T4, Thromboxane A2 receptor (Homo sapiens, UniProt P21731).
T4 sequence (P21731 whole entry): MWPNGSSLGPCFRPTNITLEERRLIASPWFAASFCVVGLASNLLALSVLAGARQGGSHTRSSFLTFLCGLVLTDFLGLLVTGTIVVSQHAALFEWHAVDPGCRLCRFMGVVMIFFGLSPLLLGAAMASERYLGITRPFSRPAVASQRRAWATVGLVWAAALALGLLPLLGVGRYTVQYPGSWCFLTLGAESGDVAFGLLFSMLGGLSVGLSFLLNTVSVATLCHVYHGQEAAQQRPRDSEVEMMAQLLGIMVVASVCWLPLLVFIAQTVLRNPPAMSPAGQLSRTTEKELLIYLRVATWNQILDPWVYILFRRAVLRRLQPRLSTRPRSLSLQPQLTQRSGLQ

Experiment [5] deals with T5, Equilibrative nucleoside transporter 1 (Homo sapiens, UniProt Q99808).
T5 sequence (Q99808 whole entry): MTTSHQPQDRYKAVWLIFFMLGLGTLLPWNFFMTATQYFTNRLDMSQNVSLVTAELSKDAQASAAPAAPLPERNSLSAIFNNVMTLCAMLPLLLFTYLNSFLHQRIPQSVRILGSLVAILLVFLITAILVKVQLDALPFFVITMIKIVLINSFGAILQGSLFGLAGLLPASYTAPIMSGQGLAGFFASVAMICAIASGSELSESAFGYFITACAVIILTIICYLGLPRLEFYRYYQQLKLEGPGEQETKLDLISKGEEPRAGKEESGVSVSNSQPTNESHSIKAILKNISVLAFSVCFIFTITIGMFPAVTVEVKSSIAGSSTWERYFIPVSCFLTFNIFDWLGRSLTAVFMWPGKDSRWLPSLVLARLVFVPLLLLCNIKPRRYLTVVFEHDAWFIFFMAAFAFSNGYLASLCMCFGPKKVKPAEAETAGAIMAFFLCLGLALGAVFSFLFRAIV

For experiment [6], the target named is Growth hormone secretagogue receptor type 1 (Homo sapiens, UniProt Q92847).
Experiment [7] concerns the target T6, Corticotropin-releasing factor receptor 2 (Homo sapiens, UniProt Q13324).
T6 sequence (Q13324 whole entry): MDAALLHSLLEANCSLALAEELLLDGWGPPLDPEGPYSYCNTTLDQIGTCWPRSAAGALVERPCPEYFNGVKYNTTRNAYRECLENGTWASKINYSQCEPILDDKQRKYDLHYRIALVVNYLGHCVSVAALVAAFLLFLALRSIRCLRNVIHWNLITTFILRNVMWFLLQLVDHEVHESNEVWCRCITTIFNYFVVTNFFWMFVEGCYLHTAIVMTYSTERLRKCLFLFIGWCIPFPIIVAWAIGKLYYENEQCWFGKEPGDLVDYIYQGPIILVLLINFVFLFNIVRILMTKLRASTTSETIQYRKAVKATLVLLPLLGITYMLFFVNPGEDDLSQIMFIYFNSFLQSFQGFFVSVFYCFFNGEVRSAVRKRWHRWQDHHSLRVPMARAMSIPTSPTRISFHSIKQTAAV

Experiment [8] deals with Sodium-dependent serotonin transporter (Homo sapiens, UniProt P31645).
Further: assay procedure not described here.

Chain of D(3) dopamine receptor (P35462 whole entry): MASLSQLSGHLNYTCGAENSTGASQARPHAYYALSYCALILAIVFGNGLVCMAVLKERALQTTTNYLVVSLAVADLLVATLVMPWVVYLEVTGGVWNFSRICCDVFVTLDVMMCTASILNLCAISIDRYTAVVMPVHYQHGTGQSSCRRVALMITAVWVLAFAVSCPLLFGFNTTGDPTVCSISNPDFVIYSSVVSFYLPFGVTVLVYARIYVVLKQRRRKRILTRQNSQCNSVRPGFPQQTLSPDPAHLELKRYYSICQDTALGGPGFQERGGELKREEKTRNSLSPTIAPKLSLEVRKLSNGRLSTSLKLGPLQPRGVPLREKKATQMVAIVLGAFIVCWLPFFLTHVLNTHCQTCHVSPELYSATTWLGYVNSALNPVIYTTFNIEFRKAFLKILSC
Chain of Growth hormone secretagogue receptor type 1 (Q92847 whole entry): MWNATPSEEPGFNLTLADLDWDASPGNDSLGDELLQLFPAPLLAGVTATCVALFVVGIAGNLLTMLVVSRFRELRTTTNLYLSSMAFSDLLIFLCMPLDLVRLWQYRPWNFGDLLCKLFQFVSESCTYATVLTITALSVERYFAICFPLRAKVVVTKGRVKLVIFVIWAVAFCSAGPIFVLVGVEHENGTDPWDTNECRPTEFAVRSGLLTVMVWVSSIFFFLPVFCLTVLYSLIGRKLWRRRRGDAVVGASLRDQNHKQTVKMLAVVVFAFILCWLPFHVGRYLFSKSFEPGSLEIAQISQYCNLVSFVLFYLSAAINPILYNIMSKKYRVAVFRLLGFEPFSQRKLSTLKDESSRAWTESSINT
Chain of Cannabinoid receptor 1 (P21554 whole entry): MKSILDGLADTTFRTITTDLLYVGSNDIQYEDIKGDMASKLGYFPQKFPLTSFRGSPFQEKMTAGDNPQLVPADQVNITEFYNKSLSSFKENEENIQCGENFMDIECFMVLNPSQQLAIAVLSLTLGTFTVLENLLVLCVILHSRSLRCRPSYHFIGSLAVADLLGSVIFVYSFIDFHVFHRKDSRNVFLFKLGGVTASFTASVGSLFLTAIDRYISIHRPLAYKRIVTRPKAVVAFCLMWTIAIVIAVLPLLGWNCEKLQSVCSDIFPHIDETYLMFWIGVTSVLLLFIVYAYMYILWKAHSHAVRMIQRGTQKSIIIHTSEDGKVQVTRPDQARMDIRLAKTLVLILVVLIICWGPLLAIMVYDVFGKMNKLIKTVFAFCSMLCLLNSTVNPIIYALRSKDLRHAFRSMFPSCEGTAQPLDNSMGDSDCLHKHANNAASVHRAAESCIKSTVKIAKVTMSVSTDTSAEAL
Chain of Gamma-aminobutyric acid receptor subunit alpha-1/alpha-2/beta-2/gamma-2 (P14867 whole entry): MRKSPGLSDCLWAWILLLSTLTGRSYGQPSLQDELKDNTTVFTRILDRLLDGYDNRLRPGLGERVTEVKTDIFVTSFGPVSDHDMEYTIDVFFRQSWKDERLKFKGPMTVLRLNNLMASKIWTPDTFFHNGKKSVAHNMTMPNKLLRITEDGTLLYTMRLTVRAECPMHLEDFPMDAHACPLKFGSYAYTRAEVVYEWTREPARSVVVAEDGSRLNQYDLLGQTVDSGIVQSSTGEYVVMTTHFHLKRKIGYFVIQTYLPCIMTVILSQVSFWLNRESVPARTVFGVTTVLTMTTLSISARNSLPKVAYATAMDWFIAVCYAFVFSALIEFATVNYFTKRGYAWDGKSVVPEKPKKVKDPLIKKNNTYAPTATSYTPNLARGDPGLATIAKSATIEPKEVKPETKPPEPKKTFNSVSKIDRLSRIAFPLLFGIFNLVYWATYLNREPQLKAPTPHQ
Chain of Gamma-aminobutyric acid receptor subunit alpha-1/alpha-2/beta-2/gamma-2 (P47870 whole entry): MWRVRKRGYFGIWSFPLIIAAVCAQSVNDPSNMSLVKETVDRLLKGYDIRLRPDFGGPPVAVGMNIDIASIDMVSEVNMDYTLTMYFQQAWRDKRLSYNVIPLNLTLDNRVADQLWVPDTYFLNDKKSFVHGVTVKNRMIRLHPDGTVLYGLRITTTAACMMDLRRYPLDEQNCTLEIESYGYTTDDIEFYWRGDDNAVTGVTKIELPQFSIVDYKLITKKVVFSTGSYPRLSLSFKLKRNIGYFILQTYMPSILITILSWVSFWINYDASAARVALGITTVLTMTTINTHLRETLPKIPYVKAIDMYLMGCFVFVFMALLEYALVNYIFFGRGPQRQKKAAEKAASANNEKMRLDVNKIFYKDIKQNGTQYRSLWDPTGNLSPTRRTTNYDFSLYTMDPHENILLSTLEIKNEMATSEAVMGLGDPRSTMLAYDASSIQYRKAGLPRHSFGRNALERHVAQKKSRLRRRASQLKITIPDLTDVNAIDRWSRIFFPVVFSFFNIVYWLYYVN
Chain of Gamma-aminobutyric acid receptor subunit alpha-1/alpha-2/beta-2/gamma-2 (P18507 whole entry): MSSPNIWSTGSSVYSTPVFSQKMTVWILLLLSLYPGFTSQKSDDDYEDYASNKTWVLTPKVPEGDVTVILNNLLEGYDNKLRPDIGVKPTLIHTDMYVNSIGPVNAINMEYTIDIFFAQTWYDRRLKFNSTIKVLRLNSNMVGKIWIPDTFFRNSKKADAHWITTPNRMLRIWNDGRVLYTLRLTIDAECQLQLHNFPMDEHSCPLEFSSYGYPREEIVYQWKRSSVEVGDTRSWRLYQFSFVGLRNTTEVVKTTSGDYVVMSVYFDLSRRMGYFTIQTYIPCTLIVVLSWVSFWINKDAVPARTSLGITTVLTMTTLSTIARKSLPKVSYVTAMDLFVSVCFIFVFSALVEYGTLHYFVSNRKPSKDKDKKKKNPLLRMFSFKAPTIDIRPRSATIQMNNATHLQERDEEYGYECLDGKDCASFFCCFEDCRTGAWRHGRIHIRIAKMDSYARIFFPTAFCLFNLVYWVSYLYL
Chain of Gamma-aminobutyric acid receptor subunit alpha-1/alpha-2/beta-2/gamma-2 (P47869 whole entry): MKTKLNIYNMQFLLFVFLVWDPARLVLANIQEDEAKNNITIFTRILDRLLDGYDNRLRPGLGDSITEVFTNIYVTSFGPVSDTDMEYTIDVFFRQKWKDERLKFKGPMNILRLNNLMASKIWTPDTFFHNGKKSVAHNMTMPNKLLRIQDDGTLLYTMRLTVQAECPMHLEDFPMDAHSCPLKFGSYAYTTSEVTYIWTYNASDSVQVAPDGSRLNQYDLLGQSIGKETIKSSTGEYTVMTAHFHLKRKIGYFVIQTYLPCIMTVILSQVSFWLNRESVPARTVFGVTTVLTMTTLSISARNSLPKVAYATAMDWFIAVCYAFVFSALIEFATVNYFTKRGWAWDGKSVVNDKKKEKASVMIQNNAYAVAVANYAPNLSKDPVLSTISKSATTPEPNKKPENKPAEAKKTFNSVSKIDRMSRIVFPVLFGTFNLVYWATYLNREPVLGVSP
Chain of Gamma-aminobutyric acid receptor subunit alpha-1 (P62813 whole entry): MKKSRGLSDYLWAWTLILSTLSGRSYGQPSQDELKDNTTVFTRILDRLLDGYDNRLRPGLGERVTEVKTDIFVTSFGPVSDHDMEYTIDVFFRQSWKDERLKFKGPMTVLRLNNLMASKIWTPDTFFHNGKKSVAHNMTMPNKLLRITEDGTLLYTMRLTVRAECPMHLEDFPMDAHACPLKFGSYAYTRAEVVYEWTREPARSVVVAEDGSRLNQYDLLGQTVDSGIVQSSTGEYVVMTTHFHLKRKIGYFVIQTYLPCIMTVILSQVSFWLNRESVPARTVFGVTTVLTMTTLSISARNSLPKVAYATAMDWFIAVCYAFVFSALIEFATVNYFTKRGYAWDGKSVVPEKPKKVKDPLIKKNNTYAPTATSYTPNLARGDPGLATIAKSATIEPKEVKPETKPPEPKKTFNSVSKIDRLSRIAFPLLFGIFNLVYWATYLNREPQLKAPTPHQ
Chain of Sodium-dependent serotonin transporter (P31645 whole entry): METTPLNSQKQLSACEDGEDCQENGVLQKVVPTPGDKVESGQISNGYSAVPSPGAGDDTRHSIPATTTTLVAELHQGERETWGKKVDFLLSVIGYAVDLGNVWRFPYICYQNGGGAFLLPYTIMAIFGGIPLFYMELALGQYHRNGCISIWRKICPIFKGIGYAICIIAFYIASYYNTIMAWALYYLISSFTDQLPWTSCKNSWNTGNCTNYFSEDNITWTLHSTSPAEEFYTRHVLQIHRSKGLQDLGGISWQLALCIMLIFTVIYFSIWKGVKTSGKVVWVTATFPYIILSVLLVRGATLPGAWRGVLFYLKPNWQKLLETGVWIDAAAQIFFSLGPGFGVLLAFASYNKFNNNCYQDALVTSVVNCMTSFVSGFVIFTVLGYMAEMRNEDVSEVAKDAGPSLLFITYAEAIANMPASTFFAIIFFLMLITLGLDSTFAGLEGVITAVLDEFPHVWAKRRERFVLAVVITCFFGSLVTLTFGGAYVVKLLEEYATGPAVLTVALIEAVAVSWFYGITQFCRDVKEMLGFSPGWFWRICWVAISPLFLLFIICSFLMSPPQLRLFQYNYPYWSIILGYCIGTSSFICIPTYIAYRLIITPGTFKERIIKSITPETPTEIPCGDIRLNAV

On to `CN1CCN(C2=Nc3ccccc3Sc3ccc(Cl)cc32)CC1` [CLOTHIAPINE], for which the AC50 is more than 30 µM in [1]; more than 10 µM in [2]; more than 30 µM on Adenosine receptor A1; more than 30 µM in [3]; 6.7 µM in [4]; 0.35 µM at D(3) dopamine receptor.
Turning to `CC[C@H]1CN2CCc3cc(OC)c(OC)cc3[C@@H]2C[C@@H]1C[C@H]1NCCc2cc(OC)c(OC)cc21` [EMETINE], the half-maximal activity concentration (AC50) (in experiment [1]; in [2]; on Cannabinoid receptor 1; on Adenosine receptor A1; in [3]; on Thromboxane A2 receptor) was more than 30 µM in each case. Also, the AC50 in experiment [5], in experiment [4] and in experiment [6] was more than 30 µM throughout.
Consider `O=[N+]([O-])O[C@@H]1CO[C@H]2[C@@H]1OC[C@@H]2O` [ISOSORBIDE MONONITRATE], for which the AC50 in experiment [1] was more than 10 µM; on Adenosine receptor A1 it was more than 30 µM; in experiment [3], more than 10 µM; in experiment [7], more than 30 µM; on Thromboxane A2 receptor it was more than 30 µM; in experiment [5], more than 30 µM. For the same compound, the concentration at half-maximal activity (AC50) is more than 10 µM in [8], more than 10 µM in experiment [4], more than 10 µM on D(3) dopamine receptor and more than 30 µM in experiment [6].
In the case of `Cc1cc(C)c(NC(=O)CN(CC(=O)O)CC(=O)O)c(C)c1Br` [MEBROFENIN], the AC50 (in experiment [1]; in experiment [2]; on Cannabinoid receptor 1; on Adenosine receptor A1; in experiment [3]; in experiment [4]) was more than 30 µM in each case. Besides, at D(3) dopamine receptor, the AC50 came to 22 µM.
For `COc1cc2nc(N3CCN(C(=O)c4ccco4)CC3)nc(N)c2cc1OC` [PRAZOSIN], the AC50 was more than 30 µM at Cannabinoid receptor 1; more than 30 µM on Adenosine receptor A1; more than 10 µM in [3]; more than 30 µM in experiment [7]; more than 30 µM on Thromboxane A2 receptor; more than 30 µM in [5]. Moreover, the AC50 in experiment [4] is more than 10 µM; on D(3) dopamine receptor, more than 30 µM; in [6], more than 30 µM.
On to `Cc1oc(=O)oc1CN1CCN(c2cc3c(cc2F)c(=O)c(C(=O)O)c2n3C(C)S2)CC1` (stereo not given) [PRULIFLOXACIN], for which the AC50 (in [1]; in experiment [2]; on Cannabinoid receptor 1; on Adenosine receptor A1; in experiment [3]; in experiment [4]) was more than 30 µM throughout. Moreover, the half-maximal activity concentration (AC50) at D(3) dopamine receptor was more than 30 µM.
`CCCCCNC(=N)N/N=C/c1c[nH]c2ccc(OC)cc12` [TEGASEROD]: the AC50 in experiment [1] was more than 30 µM; at Adenosine receptor A1, more than 30 µM; in [3] it was more than 30 µM; in experiment [7], more than 30 µM; on Thromboxane A2 receptor, 8.39 µM; in experiment [5] it was more than 30 µM. Besides, the AC50 in [8] is 3.47 µM; in [4], more than 10 µM; at D(3) dopamine receptor it was 3.5 µM; in experiment [6], 11.4 µM.
As for `COC1=C(OC)C(=O)C(C/C=C(\C)CC/C=C(\C)CC/C=C(\C)CC/C=C(\C)CC/C=C(\C)CC/C=C(\C)CC/C=C(\C)CC/C=C(\C)CC/C=C(\C)CCC=C(C)C)=C(C)C1=O` [UBIDECARENONE], the half-maximal activity concentration (AC50) (in experiment [1]; in experiment [2]; on Cannabinoid receptor 1; on Adenosine receptor A1; in [3]; in experiment [4]) was more than 30 µM in each case. Also, the concentration at half-maximal activity (AC50) at D(3) dopamine receptor was more than 30 µM.
